The values that follow come from article PMC7018657, “Molecular Determinants of Substrate Selectivity of a Pneumococcal Rgg-Regulated Peptidase-Containing ABC Transporter” (mBio, 2020).

Where no end group is shown, it is not given here. Bounds are passed on as bounds.

What is called EC50 is the concentration at which the effect is half-maximal.

Assay [1] addresses T1, D39 PrtgS1-luc (rtg locus) (Streptococcus pneumoniae, UniProt A0ACD7PPC8).
T1 sequence (A0ACD7PPC8 1-287): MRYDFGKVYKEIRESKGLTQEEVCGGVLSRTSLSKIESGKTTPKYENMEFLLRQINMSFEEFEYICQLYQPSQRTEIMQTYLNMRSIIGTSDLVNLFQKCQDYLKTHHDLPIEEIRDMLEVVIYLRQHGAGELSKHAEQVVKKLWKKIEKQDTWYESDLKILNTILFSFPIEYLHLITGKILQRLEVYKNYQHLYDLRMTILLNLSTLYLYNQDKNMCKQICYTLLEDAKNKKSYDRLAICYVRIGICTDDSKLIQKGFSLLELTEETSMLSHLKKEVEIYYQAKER
Nature of the assay: RtgS dose-response assay, PrtgS1-luc reporter, D39 ΔrtgS1 ΔrtgS2. The format is cell-based. The settings on record: CDM+; for Maximal response: mean ± SE from Hill fit, 3 independent experiments, max PrtgS1 activity within 60 min / 120 min (methods). As to the method: (§1) FIG 2 The Rgg/SHP-like RtgR/RtgS system regulates rtg. (A) rtgR and rtgS1 are required for rtg activation in Sp9-BS68. Sp9-BS68 PrtgS1-luc reporters were grown in CDM+ or THY and monitored for rtg activation (dark, left y axis) and cell density (light, right y axis). Plots show medians (lines) and 25% to 75% quantiles (shading) from 12 wells pooled from 3 independent experiments. (B) Translated rtgS gene products from Sp9-BS68 and D39. The type-defining residues are highlighted in red. (C) rtgS1 but not rtgS2 is required for rtg activation in D39. D39 PrtgS1-luc reporters were grown in CDM+ and monitored for rtg activation (dark, left y axis) and cell density (light, right y axis). Plots show medians (lines) and 25% to 75% quantiles (shading) from 30 wells pooled from 3 independent experiments. C-terminal fragments of RtgSA induce rtg in an RtgR-dependent manner. Sp9-BS68 PrtgS1-luc reporters were grown in CDM+ and THY (D) or CDM+ only (E) to an OD620 of 0.02 and treated with synthetic RtgSA fragments. Response was defined as the maximum observed PrtgS1 activity within 60 min of treatment. Data in panel D were fitted to the four-parameter Hill model (curves). Plotted data points represent means ± SEs from 3 independent experiments. […] A D39 ΔrtgS1 ΔrtgS2 PrtgS1-luc reporter was grown in CDM+ to an OD620 of 0.02 and treated with synthetic RtgS fragments. Response was defined as the maximum observed PrtgS1 activity within 60 min of treatment. Data were fitted to the four-parameter Hill model (curves). Plotted data points represent means ± SEs from 3 independent experiments. […] A D39 ΔrtgS1 ΔrtgS2 PrtgS1-luc reporter was grown in CDM+ to an OD620 of 0.02 and treated simultaneously with 2 nM RtgSA-C10 and various concentrations of RtgSB-C10. Response was defined as the maximum observed PrtgS1 activity within 120 min of treatment. Plotted data points represent means ± SEs from 3 independent experiments. **, P < 0.01; ***, P < 0.001 versus 0 nM RtgSB-C10 by ANOVA with Dunnett’s correction for multiple comparisons.
(§2) All strains were derived from Sp9-BS68 ([36]), D39, or the R6 strain P654 (referred to as PSD100 in reference) (see Table S1 and methods in Text S1 in the supplemental material for details). […] Pneumococcus was grown in either filter-sterilized THY (Todd Hewitt broth plus 0.5% yeast extract) or CDM+ (see methods in Text S1) ([38]) at 37°C. All media contained 5 μg/ml catalase. All CDM+ was supplemented with 0.5% (vol/vol) THY. Except where noted otherwise, pneumococcal cultures used for experiments were inoculated to an OD620 of 0.0015 from starter cultures grown in THY (pH 7.4) to an OD620 of 0.275 and frozen at −80°C in 13% glycerol. Starter cultures were pelleted at 6,000 × g for 5 min at room temperature and resuspended in the appropriate growth medium for the experiment before being used for inoculation. Antibiotics were used at the following concentrations: chloramphenicol, 2 μg/ml; gentamicin, 200 μg/ml; kanamycin, 500 μg/ml; spectinomycin, 200 μg/ml; streptomycin, 100 μg/ml.
(§3) Cells expressing PrtgS1-luc reporters were grown in THY or CDM+ containing 330 μM firefly luciferin. […] The plate was then incubated in a Synergy HTX plate reader set to read absorbance at 620 nm and luminescence every 5 min. For D39 strains only, the plate was shaken before readings were taken. PrtgS1 activity was calculated, and the response was defined as the maximum observed PrtgS1 activity within 60 min (Sp9-BS68) or 120 min (D39) of treatment. […]

Assay [2] has as its system Sp9-BS68 PrtgS1-luc in ΔpptAB and ΔamiCD mutants. Description: Response of ΔpptAB and ΔamiCD PrtgS1-luc reporters to exogenous RtgS. The format is cell-based, Streptococcus pneumoniae Sp9-BS68. The settings on record: CDM+, RtgSA-C10 at OD620 0.02, max within 60 min, 3 independent experiments. As to the method: Supplementary file : FIG S1 Ami and PptAB are required for RtgR/S signaling. (A) Both Ami and PptAB are required for natural rtg autoinduction. Sp9-BS68 PrtgS1-luc reporters were grown in CDM+ and monitored for rtg activation (dark, left y axis) and cell density (light, right y axis). Plots show medians (lines) and 25% to 75% quantiles (shading) from 30 wells per strain pooled from 3 independent experiments. […] Sp9-BS68 PrtgS1-luc reporters were grown in CDM+ to an OD620 of 0.02 and treated with RtgSA-C10. Response was defined as the maximum observed PrtgS1 activity within 60 min of treatment. Plotted data points represent means ± SEs from 3 independent experiments. Download FIG S1, PDF file, 0.6 MB.
Cells expressing PrtgS1-luc reporters were grown in THY or CDM+ containing 330 μM firefly luciferin. At an OD620 of 0.02, cultures were aliquoted into a white, clear-bottom 96-well plate (655098; Greiner Bio-One), 100 μl per well. […] The plate was then incubated in a Synergy HTX plate reader set to read absorbance at 620 nm and luminescence every 5 min. For D39 strains only, the plate was shaken before readings were taken. PrtgS1 activity was calculated, and the response was defined as the maximum observed PrtgS1 activity within 60 min (Sp9-BS68) or 120 min (D39) of treatment. […]

Assay [3] deals with Sp9-BS68 rtgS1 promoter (PrtgS1-luc; RtgR-dependent). Nature of the assay: RtgS dose-response assay, PrtgS1-luc reporter, Sp9-BS68 ΔrtgS1. The format is cell-based, Streptococcus pneumoniae Sp9-BS68. As to conditions: for induction of rtgS1 promoter: Sp9-BS68 PrtgS1-luc, CDM+ and THY; for Maximal response / EC50: Sp9-BS68 ΔrtgS1, mean ± SE from Hill fit, 3 independent experiments, max PrtgS1 activity within 60 min; for EC50: synthetic peptide added at OD620 0.02, luminescence, 37°C. As to the method:
as §1, §2
Cells expressing PrtgS1-luc reporters were grown in THY or CDM+ containing 330 μM firefly luciferin. At an OD620 of 0.02, cultures were aliquoted into a white, clear-bottom 96-well plate (655098; Greiner Bio-One), 100 μl per well. Each well of the plate was prefilled with 100 μl sterile medium containing 0.5% (vol/vol) dimethyl sulfoxide (DMSO), 330 μM firefly luciferin, and appropriate concentrations of synthetic RtgS peptide (Genscript). The plate was then incubated in a Synergy HTX plate reader set to read absorbance at 620 nm and luminescence every 5 min. For D39 strains only, the plate was shaken before readings were taken. PrtgS1 activity was calculated, and the response was defined as the maximum observed PrtgS1 activity within 60 min (Sp9-BS68) or 120 min (D39) of treatment. When applicable, curves were fit to a Hill model using the nls() function in R 3.5.1.

Assay [4] deals with T1, D39 PrtgS1-luc (rtg locus). Description: Competitive dose-response assay of RtgSB-C10 against RtgSA-C10, D39 ΔrtgS1 ΔrtgS2 PrtgS1-luc. The format is cell-based. The settings on record: CDM+. The protocol: FIG 2 The Rgg/SHP-like RtgR/RtgS system regulates rtg. (A) rtgR and rtgS1 are required for rtg activation in Sp9-BS68. Sp9-BS68 PrtgS1-luc reporters were grown in CDM+ or THY and monitored for rtg activation (dark, left y axis) and cell density (light, right y axis). Plots show medians (lines) and 25% to 75% quantiles (shading) from 12 wells pooled from 3 independent experiments. (B) Translated rtgS gene products from Sp9-BS68 and D39. The type-defining residues are highlighted in red. (C) rtgS1 but not rtgS2 is required for rtg activation in D39. D39 PrtgS1-luc reporters were grown in CDM+ and monitored for rtg activation (dark, left y axis) and cell density (light, right y axis). Plots show medians (lines) and 25% to 75% quantiles (shading) from 30 wells pooled from 3 independent experiments. C-terminal fragments of RtgSA induce rtg in an RtgR-dependent manner. […]
as §3

For the sequence AIIFPWGWPI [RtgSA-C10], in assay [1], the “rtg induction / type of agonism” value is on record as “induces rtg similarly to Sp9-BS68” and the Maximal response is listed as 75.1 ± 8.1 10^3 RLU·min^−1·OD620^−1. Besides, in assay [2], the “rescue of rtg activation by exogenous RtgS” value is reported as “rescues rtg activation defect in the ΔpptAB mutant but not the ΔamiCD mutant”. The “induction of rtgS1 promoter” value in assay [3] is “induced expression from the Sp9-BS68 rtgS1 promoter in both CDM+ and THY”. Besides, in assay [3] (CDM+), the Maximal response is recorded as 205.7 ± 9.1 10^3 RLU·min^−1·OD620^−1 and the EC50 is 1.63 ± 0.19 nM. In addition, in assay [3] (THY), the Maximal response is reported as 232.4 ± 14.3 10^3 RLU·min^−1·OD620^−1 and the EC50 came to 47.4 ± 6.9 nM.
Regarding AIIFPWGWSI [RtgSB-C10], in assay [1], the “rtg induction / type of agonism” value is given as “partial agonist” and the Maximal response is recorded as 21.2 ± 1.5 10^3 RLU·min^−1·OD620^−1. Moreover, in assay [1] (versus RtgSA-C10), the “EC50 value larger than that of RtgSA-C10 (ratio)” value was 55 fold. The “antagonism of RtgSA-C10” value in assay [4] (high concentrations with 2 nM RtgSA-C10, 3 independent experiments) is reported as “antagonize RtgSA-C10”. Moreover, the “concentration antagonizing RtgSA-C10” value in assay [4] (simultaneous with 2 nM RtgSA-C10, max PrtgS1 activity within 120 min, 3 independent experiments) is recorded as at least 256 nM.
On to IFPWGWPI [RtgSA-C8], for which the “induction of rtgS1 promoter” value in assay [3] is “induced expression from the Sp9-BS68 rtgS1 promoter in both CDM+ and THY”. The values for the Maximal response in assay [3] (CDM+) and in assay [3] (THY) were 212.2 ± 9.4 10^3 RLU·min^−1·OD620^−1 and 229.7 ± 8.6 10^3 RLU·min^−1·OD620^−1, respectively. Further, the concentration giving a half-maximal response (EC50) in assay [3] (CDM+) was 2.53 ± 0.25 nM; in assay [3] (THY), 184 ± 15 nM.
Regarding SLAIIFPWGWPI [RtgSA-C12], in assay [3], the “induction of rtgS1 promoter” value was “induced expression from the Sp9-BS68 rtgS1 promoter in both CDM+ and THY”. In assay [3] (CDM+), the Maximal response is 213.9 ± 8.0 10^3 RLU·min^−1·OD620^−1 and the EC50 turned out to be 3.51 ± 0.28 nM. Further, in assay [3] (THY), the Maximal response is listed as 210.1 ± 13.1 10^3 RLU·min^−1·OD620^−1 and the EC50 is 315 ± 42 nM.
